From ChEMBL document CHEMBL1201862, “PubChem BioAssay data set” (2004)
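Interpolation was linear, between the two tested concentrations surrounding the appropriate level; five concentrations were tested over 48 hours in 96-well plates. GI50 marks 50% less growth.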 Active and inactive are the calls of the source. No stated cut-off is given here; in the data, active = GI50 up to about 1.1 µM and inactive = higher.

Assays:
Assay in all cases: growth of human tumour cells (NCI), 48 h
HOP-92 = system: HOP-92
HT-29 = system: HT-29
SF-268 = system: SF-268
IGROV-1 = system: IGROV-1
T47D = system: T47D
COLO 205 = system: COLO 205
SN12C = system: SN12C
M14 = system: M14
SK-MEL-2 = system: SK-MEL-2
UACC-62 = system: UACC-62
HL-60 = system: HL-60
UO-31 = system: UO-31
OVCAR-8 = system: OVCAR-8
TK-10 = system: TK-10
EKVX = system: EKVX
BT-549 = system: BT-549
MCF7 = system: MCF7
HCT-15 = system: HCT-15
RXF 393 = system: RXF 393

Row | SMILES | GI50 (HOP-92) | GI50 (HT-29) | GI50 (SF-268) | GI50 (IGROV-1) | GI50 (T47D) | GI50 (COLO 205) | GI50 (SN12C) | GI50 (M14) | GI50 (SK-MEL-2) | GI50 (UACC-62) | GI50 (HL-60) | GI50 (UO-31) | GI50 (OVCAR-8) | GI50 (TK-10) | GI50 (EKVX) | GI50 (BT-549) | GI50 (MCF7) | GI50 (HCT-15) [µM] | GI50 (RXF 393)
1 | O=[N+]([O-])c1ccc(-n2nc3ccc4c(no[n+]4[O-])c3n2)cc1 | 5.82 µM (inactive) | > 100 µM (inactive) | > 100 µM (inactive) | > 100 µM (inactive) | > 100 µM (inactive) | > 100 µM (inactive) | > 100 µM (inactive) | > 100 µM (inactive) | > 100 µM (inactive) | 88.3 µM (inactive) | 7.35 µM (inactive) | 15.1 µM (inactive) | > 100 µM (inactive) | > 100 µM (inactive) | 24.8 µM (inactive) | > 100 µM (inactive) | 82 µM (inactive) | > 100 | 
2 | OC1[C@@H]2[C@@H](O)[C@H](O)[C@@H](O)N2C[C@@H]1O (stereo not given in full) | > 100 µM (inactive) | > 100 µM (inactive) | > 100 µM (inactive) | > 100 µM (inactive) | > 100 µM (inactive) | > 100 µM (inactive) | > 100 µM (inactive) | > 100 µM (inactive) | > 100 µM (inactive) | > 100 µM (inactive) |  | > 100 µM (inactive) | > 100 µM (inactive) | > 100 µM (inactive) | > 100 µM (inactive) | > 100 µM (inactive) | > 100 µM (inactive) | > 100 | > 100 µM (inactive)
3 | Oc1c(Br)cc(/C=C/c2ccnc(/C=C/c3cc(Br)c(O)c(Br)c3)c2)cc1Br | 30.8 µM (inactive) | 21.7 µM (inactive) | 40.3 µM (inactive) | 32.4 µM (inactive) | 16.7 µM (inactive) | 27.4 µM (inactive) | 51.3 µM (inactive) | 25.1 µM (inactive) | 14.9 µM (inactive) | 24.3 µM (inactive) | 14.5 µM (inactive) | 19.2 µM (inactive) | 26.8 µM (inactive) | 27.2 µM (inactive) | 25.4 µM (inactive) | 33.4 µM (inactive) | 24.2 µM (inactive) | 23.6 | 
4 | CCOC(=O)C1=c2[nH]c3cccc4cccc(c43)n2C=C(C(C)=O)C1CC(C)=O (stereo not given) | 36.6 µM (inactive) |  |  | > 100 µM (inactive) | 34 µM (inactive) | 35.1 µM (inactive) | > 100 µM (inactive) | > 100 µM (inactive) | > 100 µM (inactive) | > 100 µM (inactive) | 12.3 µM (inactive) | 37.4 µM (inactive) | 46.2 µM (inactive) | > 100 µM (inactive) | > 100 µM (inactive) | > 100 µM (inactive) | 94.2 µM (inactive) | 44 | 56.1 µM (inactive)
5 | CC1CC[C@@H](C(C)C)[C@H](Oc2nnc(C3OC(CO)C(O)C3O)o2)C1 (stereo not given in full) | > 100 µM (inactive) | > 100 µM (inactive) | > 100 µM (inactive) |  | > 100 µM (inactive) | > 100 µM (inactive) | > 100 µM (inactive) |  | > 100 µM (inactive) | > 100 µM (inactive) | > 100 µM (inactive) | > 100 µM (inactive) | > 100 µM (inactive) | > 100 µM (inactive) | > 100 µM (inactive) | > 100 µM (inactive) | > 100 µM (inactive) | > 100 | > 100 µM (inactive)
6 | COC(=O)c1sc2ncc3c(c2c1N)CCCCCC3 | > 100 µM (inactive) | > 100 µM (inactive) | > 100 µM (inactive) | > 100 µM (inactive) | > 100 µM (inactive) | > 100 µM (inactive) | > 100 µM (inactive) | > 100 µM (inactive) | > 100 µM (inactive) | > 100 µM (inactive) |  | > 100 µM (inactive) | > 100 µM (inactive) | > 100 µM (inactive) | > 100 µM (inactive) | > 100 µM (inactive) | > 100 µM (inactive) | > 100 | > 100 µM (inactive)
7 | Oc1c2cccc1Cc1cccc3c1OCCOCCOCCOCCOc1c(cccc1Cc1cccc(c1O)C3)C2 | > 100 µM (inactive) | 54.3 µM (inactive) | > 100 µM (inactive) | > 100 µM (inactive) | > 100 µM (inactive) | > 100 µM (inactive) | > 100 µM (inactive) | > 100 µM (inactive) | > 100 µM (inactive) | 26.7 µM (inactive) |  | > 100 µM (inactive) | 85.7 µM (inactive) | > 100 µM (inactive) | > 100 µM (inactive) | > 100 µM (inactive) | > 100 µM (inactive) | > 100 | > 100 µM (inactive)
8 | Cc1ccc(Cc2nn(C)c(=O)n2N)cc1 | > 100 µM (inactive) | > 100 µM (inactive) |  | > 100 µM (inactive) | > 100 µM (inactive) | > 100 µM (inactive) | > 100 µM (inactive) | > 100 µM (inactive) | > 100 µM (inactive) | > 100 µM (inactive) |  | > 100 µM (inactive) | > 100 µM (inactive) | > 100 µM (inactive) | > 100 µM (inactive) | > 100 µM (inactive) | > 100 µM (inactive) | > 100 | 
9 | C/C(=N\NC(=S)N1CCCC1)c1nc2cccnc2[nH]1 | 0.681 µM (active) | 0.394 µM (active) | 0.185 µM (active) | 0.354 µM (active) | 0.432 µM (active) | 0.378 µM (active) | 0.378 µM (active) | 0.357 µM (active) | 4.34 µM (inactive) | 0.259 µM (active) | 0.162 µM (active) | 0.0634 µM (active) | 0.304 µM (active) | 0.557 µM (active) |  | 0.129 µM (active) | 0.33 µM (active) | 0.137 | 
10 | CCCCCCCN1C(=O)C(O)(c2ccc(C3(O)C(=O)N(CCCCCCC)c4ccccc43)s2)c2ccccc21 (stereo not given) | 1.84 µM (inactive) | 1.78 µM (inactive) | 2.11 µM (inactive) | 2.35 µM (inactive) | 4.39 µM (inactive) | 1.63 µM (inactive) | 1.9 µM (inactive) | 1.79 µM (inactive) | 1.47 µM (inactive) | 2.12 µM (inactive) | 1.56 µM (inactive) | 1.57 µM (inactive) | 2.04 µM (inactive) | 2.25 µM (inactive) |  | 2.33 µM (inactive) | 2.21 µM (inactive) | 2.12 | 
11 | O=[N+]([O-])c1ccc(/C=C(/c2ccc([N+](=O)[O-])o2)S(=O)(=O)c2ccccc2)cc1 | > 100 µM (inactive) | 41.1 µM (inactive) | 95.9 µM (inactive) | 75.5 µM (inactive) | > 100 µM (inactive) | 47.6 µM (inactive) |  | 56.2 µM (inactive) | > 100 µM (inactive) | 22.2 µM (inactive) | 17.5 µM (inactive) | > 100 µM (inactive) | 29.4 µM (inactive) | > 100 µM (inactive) |  | 36.1 µM (inactive) | 40.8 µM (inactive) | 26.9 | > 100 µM (inactive)
12 | CCOC1NC(=O)Oc2cc3ccccc3cc21 (stereo not given) | 29.6 µM (inactive) | > 100 µM (inactive) | > 100 µM (inactive) | > 100 µM (inactive) | 39.6 µM (inactive) | > 100 µM (inactive) | > 100 µM (inactive) | 39 µM (inactive) |  | 42.6 µM (inactive) | 31.3 µM (inactive) | > 100 µM (inactive) | 48.6 µM (inactive) | > 100 µM (inactive) | > 100 µM (inactive) | 44.1 µM (inactive) | 35.6 µM (inactive) | 34.4 | > 100 µM (inactive)
13 | O=C1CSC(c2cccc(Oc3ccccc3)c2)N1c1cc(Cl)ccc1Cl (stereo not given) | 16.4 µM (inactive) | 22.4 µM (inactive) | 19.7 µM (inactive) |  | 21.7 µM (inactive) | 36.7 µM (inactive) | 19.5 µM (inactive) | 22.2 µM (inactive) | 18.7 µM (inactive) | 16 µM (inactive) | 27.3 µM (inactive) | 23.3 µM (inactive) | 23.7 µM (inactive) | 25.5 µM (inactive) | 26.1 µM (inactive) | 19.1 µM (inactive) | 6.3 µM (inactive) | 23.8 | 18.5 µM (inactive)
14 | O=[N+]([O-])c1ccc(/N=N\c2c(O)c(S(=O)(=O)O)cc3cc(S(=O)(=O)O)ccc23)cc1 | > 100 µM (inactive) | > 100 µM (inactive) |  | > 100 µM (inactive) | > 100 µM (inactive) | > 100 µM (inactive) | > 100 µM (inactive) | > 100 µM (inactive) | > 100 µM (inactive) | > 100 µM (inactive) | > 100 µM (inactive) | > 100 µM (inactive) | > 100 µM (inactive) | > 100 µM (inactive) | > 100 µM (inactive) | > 100 µM (inactive) | > 100 µM (inactive) | > 100 | 
15 | Cc1occc1/C(S)=N\c1ccc(Cl)c(C(=O)OCC2CC2)c1 | 30.8 µM (inactive) | 34.7 µM (inactive) | 36.1 µM (inactive) | 37.3 µM (inactive) | 35 µM (inactive) | 26.7 µM (inactive) | 34.9 µM (inactive) | 85.5 µM (inactive) | 47.4 µM (inactive) | 31.3 µM (inactive) | 28.4 µM (inactive) | 58.5 µM (inactive) | 39.9 µM (inactive) | 34.8 µM (inactive) | 35 µM (inactive) | 22.7 µM (inactive) | 38.5 µM (inactive) | 31.5 | 
16 | CC(C)(C)c1ccc(OC(=O)Nc2ccc(O)c(C(=O)O)c2)cc1 | > 100 µM (inactive) | > 100 µM (inactive) | > 100 µM (inactive) | > 100 µM (inactive) | > 100 µM (inactive) | > 100 µM (inactive) | > 100 µM (inactive) | > 100 µM (inactive) | > 100 µM (inactive) | > 100 µM (inactive) | 30.7 µM (inactive) |  | > 100 µM (inactive) | > 100 µM (inactive) | > 100 µM (inactive) | > 100 µM (inactive) | > 100 µM (inactive) | > 100 | > 100 µM (inactive)
